Source: patent US20220411419A1, “SMALL MOLECULE MODULATORS OF MHC-I” (RetroVirox, Inc., priority 2018, published 2022)

Columns and labels:
in vitro = settings: human, uninfected SupT1 cells
[1] = tested on: downmodulation of MHC-I molecules expressed on the surface of HIV infected SupT1 cells; assay: cells; settings: for EC50: Human immunodeficiency virus 1, SUP-T1, read-out: EC50 for inhibition of MHC-I downmodulation utilizing the R1 parameter; for activity at 100 µM: Human immunodeficiency virus 1, SUP-T1, read-out: R1 @ 100 μM (R1 value for MHC-I downmodulation as % of the vehicle control)

| Structure (SMILES) | CC50 (in vitro) [µM] | CC50 at 48 h (in vitro) [µM] | EC50 [1] [µM] | activity at 100 µM [1] [%] |
| --- | --- | --- | --- | --- |
| CC1(C)Cc2cccc(OCC(=O)Nc3nc(C(=O)N4CC(CO)C4)cs3)c2O1 [Compound 153, 2-((2,2-Dimethyl-2,3-dihydrobenzofuran-7-yl)oxy)-N-(4-(3-(hydroxymethyl)azetidine-1-carbonyl)thiazol-2-yl)acetamide] | > 90 | > 90 | > 25 | 39 |
| Cc1ccc(N(C(=O)COc2cccc3c2OC(C)(C)C3)c2ccc(C)nn2)cc1 [Compound 88, 2-((2,2-Dimethyl-2,3-dihydrobenzofuran-7-yl)oxy)-N-(6-methylpyridazin-3-yl)-N-(p-tolyl)acetamide] |  | > 100 | 3.25 |  |
| Cc1ccc(N(Cc2ccccc2)C(=O)COc2cccc3c2OC(C)(C)C3)nn1 [Compound 36, N-Benzyl-2-((2,2-dimethyl-2,3-dihydrobenzofuran-7-yl)oxy)-N-(6-methylpyridazin-3-yl)acetamide] |  | > 100 | 23.6 |  |
| Cc1cc(NC(=O)COc2cccc3c2OC(C)(C)C3)ncc1Br [Compound 76, N-(5-Bromo-4-methylpyridin-2-yl)-2-((2,2-dimethyl-2,3-dihydrobenzofuran-7-yl)oxy)acetamide] |  | > 125 | 23 |  |
| O=C(COc1cccc2[nH]ccc12)Nc1nc2c(s1)CCCC2 [Compound 132, 2-((1H-Indol-4-yl)oxy)-N-(4,5,6,7-tetrahydrobenzo[d]thiazol-2-yl)acetamide] |  | > 125 | 0.081 |  |
| CC1(C)Cc2cccc(OCC(=O)N(Cc3ccccc3)c3nc4c(F)cccc4s3)c2O1 [Compound 32, N-Benzyl-2-((2,2-dimethyl-2,3-dihydrobenzofuran-7-yl)oxy)-N-(4-fluorobenzo[d]thiazol-2-yl)acetamide] |  | > 100 | 0.009 |  |
| CC1(C)Cc2cccc(OCC(=O)Nc3ccc(C#N)cn3)c2O1 [Compound 22, N-(5-Cyanopyridin-2-yl)-2-((2,2-dimethyl-2,3-dihydrobenzofuran-7-yl)oxy) acetamide] |  | > 100 | 25 |  |
| COc1cccc(OCC(=O)N(C)c2nc3c(s2)CCCC3)c1 [Compound 121, 2-(3-Methoxyphenoxy)-N-methyl-N-(4,5,6,7-tetrahydrobenzo[d]thiazol-2-yl) acetamide] |  | > 125 | 3.9 |  |
| CC1(C)Cc2cccc(OCC(=O)Nc3cncc4ccccc34)c2O1 [Compound 10, 2-((2,2-Dimethyl-2,3-dihydrobenzofuran-7-yl)oxy)-N-(isoquinolin-4-yl) acetamide] | > 100 | > 100 | > 25 | 46 |
| Cc1csc(N(C(=O)COc2cccc3c2OC(C)(C)C3)c2cccnc2)n1 [Compound 65, 2-((2,2-Dimethyl-2,3-dihydrobenzofuran-7-yl)oxy)-N-(4-methylthiazol-2-yl)-N-(pyridin-3-yl)acetamide] |  | > 125 | 0.88 |  |
| CC1(C)Cc2cccc(OCC(=O)Nc3nc4c(F)c(F)c(F)cc4s3)c2O1 [Compound 4, 2-((2,2-Dimethyl-2,3-dihydrobenzofuran-7-yl)oxy)-N-(4,5,6-trifluorobenzo [d]thiazol-2-yl)acetamide] |  | > 100 | 0.068 |  |
| Cc1ccnc(C)c1OCC(=O)N(C)c1nc2c(s1)CCCC2 [Compound 136, 2-((2,4-Dimethylpyridin-3-yl)oxy)-N-methyl-N-(4,5,6,7-tetrahydrobenzo[d]thiazol-2-yl)acetamide] |  | 124 | 12 |  |
| Cc1ccc(N(C(=O)COc2cccc3c2OC(C)(C)C3)c2nc3c(s2)CCCC3)nn1 [Compound 92, 2-((2,2-Dimethyl-2,3-dihydrobenzofuran-7-yl)oxy)-N-(6-methylpyridazin-3-yl)-N-(4,5,6,7-tetrahydrobenzo[d]thiazol-2-yl)acetamide] |  | > 100 | 25 |  |
| Cc1cnc(NC(=O)COc2cccc3c2OC(C)(C)C3)cc1C [Compound 77, 2-((2,2-Dimethyl-2,3-dihydrobenzofuran-7-yl)oxy)-N-(4,5-dimethylpyridin-2-yl)acetamide] | > 125 | > 125 | > 25 | 21 |
| CC1(C)Cc2cccc(OCC(=O)Nc3nc4cc(F)ccc4s3)c2O1 [Compound 148, 2-((2,2-Dimethyl-2,3-dihydrobenzofuran-7-yl)oxy)-N-(5-fluorobenzo[d]thiazol-2-yl)acetamide] |  | > 100 | 2 |  |
| Cc1csc(N(Cc2ccccn2)C(=O)COc2cccc3c2OC(C)(C)C3)n1 [Compound 33, 2-((2,2-Dimethyl-2,3-dihydrobenzofuran-7-yl)oxy)-N-(4-methylthiazol-2-yl)-N-(pyridin-2-ylmethyl)acetamide] |  | > 100 | 0.18 |  |
| Cc1cc2c(OCC(=O)N(C)c3nc4c(s3)CCCC4)cccc2[nH]1 [Compound 123, N-Methyl-2-((2-methyl-1H-indol-4-yl)oxy)-N-(4,5,6,7-tetrahydrobenzo[d]thiazol-2-yl)acetamide] |  | > 125 | 0.013 |  |

| Structure (SMILES) | CC50 (in vitro) [µM] | CC50 at 48 h (in vitro) [µM] | EC50 [1] [µM] | activity at 100 µM [1] [%] |
| --- | --- | --- | --- | --- |
| C=CCN(C(=O)COc1cccc2c1OC(C)(C)C2)c1nc(C)cs1 [Compound 63, N-Allyl-2-((2,2-dimethyl-2,3-dihydrobenzofuran-7-yl)oxy)-N-(4-methylthiazol-2-yl)acetamide] |  | > 100 | 0.19 |  |
| CN(C(=O)COc1cccc2c1OC(C)(C)C2)c1nc2ccccc2s1 [Compound 144, N-(benzo[d]thiazol-2-yl)-2-((2,2-dimethyl-2,3-dihydrobenzofuran-7-yl)oxy)-N-methylacetamide] |  | > 90 | 29 |  |
| COc1ccc(OCC(=O)N(C)c2nc3c(s2)CCCC3)cc1 [Compound 127, 2-(4-Methoxyphenoxy)-N-methyl-N-(4,5,6,7-tetrahydrobenzo[d]thiazol-2-yl) acetamide] |  | > 125 | > 25 |  |
| Cc1cc(NC(=O)COc2cccc3c2OC(C)(C)C3)ncc1Cl [Compound 18, N-(5-Chloro-4-methylpyridin-2-yl)-2-((2,2-dimethyl-2,3-dihydrobenzofuran-7-yl)oxy)acetamide] |  | > 125 | 18 |  |
| CC1(C)Cc2cccc(OC(C)(C)C(=O)Nc3nc4ccccc4s3)c2O1 [Compound 20, N-(Benzo[d]thiazol-2-yl)-2-((2,2-dimethyl-2,3-dihydrobenzofuran-7-yl)oxy)-2-methylpropanamide] | > 90 | > 90 | > 30 | 56 |
| Cc1csc(N(C(=O)COc2cccc3c2OC(C)(C)C3)c2ccccn2)n1 [Compound 91, 2-((2,2-Dimethyl-2,3-dihydrobenzofuran-7-yl)oxy)-N-(4-methylthiazol-2-yl)-N-(pyridin-2-yl)acetamide] |  | > 100 | 0.89 |  |
| Cc1ccc(N(C(=O)COc2cccc3c2OC(C)(C)C3)c2nc(C)cs2)nn1 [Compound 93, 2-((2,2-Dimethyl-2,3-dihydrobenzofuran-7-yl)oxy)-N-(6-methylpyridazin-3-yl)-N-(4-methylthiazol-2-yl)acetamide] | > 100 | > 100 | > 25 | 65 |
| CC1(C)Cc2cccc(OCC(=O)N(Cc3ccccn3)c3nc4c(s3)CCCC4)c2O1 [Compound 38, 2-((2,2-Dimethyl-2,3-dihydrobenzofuran-7-yl)oxy)-N-(pyridin-2-ylmethyl)-N-(4,5,6,7-tetrahydrobenzo[d]thiazol-2-yl)acetamide] |  | 0.25 | 0.006 |  |
| CC1(C)Cc2cccc(CCC(=O)Nc3nc4c(F)cccc4s3)c2O1 [Compound 107, 3-(2,2-Dimethyl-2,3-dihydrobenzofuran-7-yl)-N-(4-fluorobenzo[d]thiazol-2-yl)propanamide] |  | > 100 | 0.37 |  |
| CC1(C)Cc2cccc(OCC(=O)Nc3nc4ccc(OC(F)(F)F)cc4s3)c2O1 [Compound 149, 2-((2,2-Dimethyl-2,3-dihydrobenzofuran-7-yl)oxy)-N-(6-(trifluoromethoxy)benzo[d]thiazol-2-yl)acetamide] | > 100 | > 100 | > 25 | 27 |
| CC1(C)Cc2cccc(OCC(=O)Nc3nc(C(=O)NCC4CCNC4)cs3)c2O1 (centres unmarked) [Compound 156, 2-(2-((2,2-dimethyl-2,3-dihydrobenzofuran-7-yl)oxy)acetamido)-N-(pyrrolidin-3-ylmethyl)thiazole-4-carboxamide] | > 90 | > 90 | > 25 | 40 |
| CC1(C)Cc2cccc(OCC(=O)N(Cc3ccccn3)c3nc4c(F)cccc4s3)c2O1 [Compound 45, 2-((2,2-Dimethyl-2,3-dihydrobenzofuran-7-yl)oxy)-N-(4-fluorobenzo[d]thiazol-2-yl)-N-(pyridin-2-ylmethyl)acetamide] |  | > 100 | 0.51 |  |
| Cc1csc(N(C(=O)COc2cccc3c2OC(C)(C)C3)c2ccccc2Cl)n1 [Compound 61, N-(2-Chlorophenyl)-2-((2,2-dimethyl-2,3-dihydrobenzofuran-7-yl)oxy)-N-(4-methylthiazol-2-yl)acetamide] |  | > 100 | 2.17 |  |
| CC1(C)Cc2cccc(OCC(=O)Nc3cccc(Br)n3)c2O1 [Compound 30, N-(6-Bromopyridin-2-yl)-2-((2,2-dimethyl-2,3-dihydrobenzofuran-7-yl)oxy)acetamide] |  | > 125 | 20 |  |
| Cc1ccncc1OCC(=O)N(C)c1nc2c(s1)CCCC2 [Compound 138, N-Methyl-2-((4-methylpyridin-3-yl)oxy)-N-(4,5,6,7-tetrahydrobenzo[d]thiazol-2-yl)acetamide] |  | > 125 | > 25 |  |
| CC1(C)Cc2cccc(OCC(=O)N(Cc3ncccn3)c3nc4c(s3)CCCC4)c2O1 [Compound 44, 2-((2,2-Dimethyl-2,3-dihydrobenzofuran-7-yl)oxy)-N-(pyrimidin-2-ylmethyl)-N-(4,5,6,7-tetrahydrobenzo[d]thiazol-2-yl)acetamide] |  | > 125 | 0.033 |  |
